Assay results reported in ChEMBL document CHEMBL5465560, “Selectivity Literature for EUbOPEN Chemogenomic Library” (2024).

What was measured:
[1] = target: T1, Receptor-interacting serine/threonine-protein kinase 1 (Homo sapiens) (UniProt Q13546); experiment: Selectivity interaction (KinomeScan (DiscoverX)) EUB0000229b RIPK1; conditions: at 10 µM
T1 sequence (whole entry): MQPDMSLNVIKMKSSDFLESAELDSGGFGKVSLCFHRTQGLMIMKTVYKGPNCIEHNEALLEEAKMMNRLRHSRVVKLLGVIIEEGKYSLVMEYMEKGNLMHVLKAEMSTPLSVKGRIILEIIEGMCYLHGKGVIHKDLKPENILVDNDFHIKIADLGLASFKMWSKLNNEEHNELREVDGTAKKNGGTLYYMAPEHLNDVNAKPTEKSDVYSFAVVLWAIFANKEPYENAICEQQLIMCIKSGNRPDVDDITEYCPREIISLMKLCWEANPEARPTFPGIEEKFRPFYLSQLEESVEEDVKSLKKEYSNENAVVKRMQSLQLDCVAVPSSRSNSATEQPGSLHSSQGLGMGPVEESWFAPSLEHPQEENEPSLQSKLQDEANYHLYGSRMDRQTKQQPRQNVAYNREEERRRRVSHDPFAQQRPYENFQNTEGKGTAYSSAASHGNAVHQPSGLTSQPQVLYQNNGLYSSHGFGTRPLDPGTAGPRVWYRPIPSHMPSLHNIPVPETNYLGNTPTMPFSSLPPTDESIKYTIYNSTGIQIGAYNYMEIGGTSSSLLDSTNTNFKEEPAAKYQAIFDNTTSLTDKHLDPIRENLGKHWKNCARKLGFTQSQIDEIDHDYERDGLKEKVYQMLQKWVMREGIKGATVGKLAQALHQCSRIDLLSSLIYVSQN

[2] = target: T2, Serine/threonine-protein kinase Nek1 (Homo sapiens) (UniProt Q96PY6); experiment: Selectivity interaction (ActivX KiNativ screen (kinase selectivity in THP-1 cell lysates)) EUB0000639a NEK1; format: subcellular; conditions: lysate
T2 sequence (whole entry): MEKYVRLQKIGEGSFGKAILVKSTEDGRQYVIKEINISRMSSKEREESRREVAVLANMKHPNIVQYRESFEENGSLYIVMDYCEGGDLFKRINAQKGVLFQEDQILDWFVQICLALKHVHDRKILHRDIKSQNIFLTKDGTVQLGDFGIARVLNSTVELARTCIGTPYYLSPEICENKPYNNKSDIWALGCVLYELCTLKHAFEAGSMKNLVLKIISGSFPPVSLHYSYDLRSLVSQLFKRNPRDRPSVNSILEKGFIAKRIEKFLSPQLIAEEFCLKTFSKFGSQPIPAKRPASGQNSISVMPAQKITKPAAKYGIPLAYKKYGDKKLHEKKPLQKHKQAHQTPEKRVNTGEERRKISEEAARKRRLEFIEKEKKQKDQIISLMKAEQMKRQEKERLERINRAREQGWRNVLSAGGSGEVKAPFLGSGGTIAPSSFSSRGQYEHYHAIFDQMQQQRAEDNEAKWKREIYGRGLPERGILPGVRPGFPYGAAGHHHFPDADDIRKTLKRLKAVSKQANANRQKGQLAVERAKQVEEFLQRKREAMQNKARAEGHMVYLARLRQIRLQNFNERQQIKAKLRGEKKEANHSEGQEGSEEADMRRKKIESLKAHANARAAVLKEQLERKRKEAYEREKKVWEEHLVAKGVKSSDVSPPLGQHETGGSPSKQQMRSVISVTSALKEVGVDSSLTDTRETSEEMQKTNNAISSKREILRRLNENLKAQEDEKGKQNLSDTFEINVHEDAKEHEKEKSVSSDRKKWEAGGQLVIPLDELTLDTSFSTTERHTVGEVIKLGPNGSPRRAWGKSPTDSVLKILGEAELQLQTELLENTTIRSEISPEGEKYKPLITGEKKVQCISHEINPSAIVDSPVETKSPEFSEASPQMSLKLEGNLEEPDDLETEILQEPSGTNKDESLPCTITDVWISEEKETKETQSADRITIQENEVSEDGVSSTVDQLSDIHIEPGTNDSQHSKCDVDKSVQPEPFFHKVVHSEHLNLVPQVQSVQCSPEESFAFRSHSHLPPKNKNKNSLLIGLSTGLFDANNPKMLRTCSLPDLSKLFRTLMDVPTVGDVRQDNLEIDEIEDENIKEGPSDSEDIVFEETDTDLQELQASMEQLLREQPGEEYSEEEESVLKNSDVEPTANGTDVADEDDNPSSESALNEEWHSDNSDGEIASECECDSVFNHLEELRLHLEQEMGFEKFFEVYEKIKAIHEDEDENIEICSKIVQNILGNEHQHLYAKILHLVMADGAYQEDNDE

[3] = target: Calcium/calmodulin-dependent protein kinase type II subunit gamma (Homo sapiens) (UniProt Q13555); experiment: Selectivity interaction (KinomeScan (DiscoverX)) EUB0001619a CAMK2G; conditions: at 1 µM
[4] = target: T3, Cyclin-dependent kinase-like 5 (Homo sapiens) (UniProt O76039); experiment: Selectivity interaction (KinomeScan (DiscoverX)) EUB0000607a CDKL5; conditions: at 10 µM
T3 sequence (whole entry): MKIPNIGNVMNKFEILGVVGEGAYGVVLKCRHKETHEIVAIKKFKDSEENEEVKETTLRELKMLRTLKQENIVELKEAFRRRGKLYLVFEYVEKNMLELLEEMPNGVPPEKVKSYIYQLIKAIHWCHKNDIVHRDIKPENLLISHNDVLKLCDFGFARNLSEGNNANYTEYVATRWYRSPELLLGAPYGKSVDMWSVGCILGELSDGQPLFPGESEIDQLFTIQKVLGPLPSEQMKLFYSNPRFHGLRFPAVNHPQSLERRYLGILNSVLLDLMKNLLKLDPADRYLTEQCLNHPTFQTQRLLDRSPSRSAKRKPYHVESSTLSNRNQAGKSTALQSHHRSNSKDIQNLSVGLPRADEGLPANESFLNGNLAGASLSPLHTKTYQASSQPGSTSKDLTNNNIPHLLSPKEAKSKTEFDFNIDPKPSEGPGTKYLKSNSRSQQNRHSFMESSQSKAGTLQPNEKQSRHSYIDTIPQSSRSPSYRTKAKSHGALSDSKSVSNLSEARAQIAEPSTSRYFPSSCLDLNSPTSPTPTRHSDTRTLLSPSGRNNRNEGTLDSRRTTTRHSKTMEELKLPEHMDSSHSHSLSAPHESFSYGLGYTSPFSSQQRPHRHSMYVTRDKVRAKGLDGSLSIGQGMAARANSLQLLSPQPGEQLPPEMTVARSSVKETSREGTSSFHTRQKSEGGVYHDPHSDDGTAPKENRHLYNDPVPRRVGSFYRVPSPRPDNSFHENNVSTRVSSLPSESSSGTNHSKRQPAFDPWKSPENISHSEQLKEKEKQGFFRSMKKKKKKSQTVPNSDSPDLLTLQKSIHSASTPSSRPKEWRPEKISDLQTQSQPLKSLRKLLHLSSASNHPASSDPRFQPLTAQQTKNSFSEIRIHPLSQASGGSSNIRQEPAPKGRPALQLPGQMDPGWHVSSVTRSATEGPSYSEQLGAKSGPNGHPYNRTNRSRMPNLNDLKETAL

Sequence of Calcium/calmodulin-dependent protein kinase type II subunit gamma (Homo sapiens) (Q13555 whole entry): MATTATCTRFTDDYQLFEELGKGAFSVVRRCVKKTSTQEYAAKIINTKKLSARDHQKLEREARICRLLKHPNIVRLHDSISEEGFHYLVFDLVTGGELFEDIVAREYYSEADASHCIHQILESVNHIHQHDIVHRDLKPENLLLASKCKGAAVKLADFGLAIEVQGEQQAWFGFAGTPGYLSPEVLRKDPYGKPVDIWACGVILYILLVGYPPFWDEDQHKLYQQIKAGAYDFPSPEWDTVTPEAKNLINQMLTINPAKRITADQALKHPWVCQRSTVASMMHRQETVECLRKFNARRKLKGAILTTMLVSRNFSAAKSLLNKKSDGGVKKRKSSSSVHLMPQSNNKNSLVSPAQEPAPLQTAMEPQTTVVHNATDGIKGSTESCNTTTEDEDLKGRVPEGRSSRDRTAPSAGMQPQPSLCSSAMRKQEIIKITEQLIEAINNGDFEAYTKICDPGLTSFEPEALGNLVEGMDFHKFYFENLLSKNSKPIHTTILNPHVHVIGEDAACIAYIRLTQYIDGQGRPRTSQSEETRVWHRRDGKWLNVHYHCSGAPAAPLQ

`COc1cc(N(C)c2ccnc3ccc(C(F)(F)F)cc23)cc(OC)c1OC` was tested, and the % binding [1] was 98%.
Work on `CC[C@@H]1[C@H](F)C(=O)N[C@@H]1COc1nccc2cc(C(N)=O)c(OC)cc12` [ZIMLOVISERTIB] yielded a % of inhibition ([2]; at 0.01 µM) of -0.6%, a % of inhibition ([2]; at 0.04 µM) of 7% and a % of inhibition ([2]; at 0.2 µM) of 14.4%. The % of inhibition ([2]; at 1 µM) was 4.9% and the % of inhibition ([2]; at 5 µM) was -6.3%.
`N#Cc1cccc(-c2c[nH]c3ncnc(N4CCOCC4)c23)c1` was tested, and the % of control [3] was 100%.
With `CNC(=O)Nc1ccc(-c2nc(N3CC4CCC(C3)O4)c3cnn(C4CCC5(CC4)OCCO5)c3n2)cc1` the % of control [4] was 79%.
